Key:
Assay type in all cases: in vivo
[1] = system: ducksalad (Heteranthera limosa); experiment: Test B flooded paddy test, visual plant response rating 0-100; conditions: 250 g ai/ha, Flood, applied to paddy water, evaluated after 13 days
Method in brief: (§1)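 Visual scores versus untreated controls were recorded 13 days after treatment of greenhouse-held plants. At the 2-leaf stage, pots were flooded 3 cm above the soil surface and compounds added straight to the water.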

[2] = system: barnyardgrass (Echinochloa crusgalli); experiment: as above; conditions: 250 g ai/ha, Flood, applied to paddy water, evaluated after 13 days
Method in brief: as §1

[3] = system: sedge, umbrella (small-flower umbrella sedge, Cyperus difformis); experiment: as above; conditions: 250 g ai/ha, Flood, applied to paddy water, evaluated after 13 days
Method in brief: as §1

rice (Oryza sativa) = experiment: as above; conditions: 250 g ai/ha, Flood, applied to paddy water, evaluated after 13 days
Method in brief: as §1

corn (Zea mays) [4] = experiment: Test A postemergence application, visual injury rating 0-100
Method in brief: (§2)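 Greenhouse test: loam/sand pots received a surfactant-containing formulation, as a preemergence directed soil spray or a postemergence spray on young plants. Injury was judged visually at day 10 relative to untreated controls.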

[5] = system: galium (catchweed bedstraw, Galium aparine); experiment: as above
Method in brief: as §2

[6] = system: green foxtail (Setaria viridis); experiment: as above
Method in brief: as §2

[7] = system: blackgrass (Alopecurus myosuroides); experiment: as above
Method in brief: as §2

[8] = system: oat, wild (wild oat, Avena fatua); experiment: as above
Method in brief: as §2

[9] = system: ragweed (common ragweed, Ambrosia artemisiifolia); experiment: as above
Method in brief: as §2

[10] = system: ryegrass, Italian (italian ryegrass, Lolium multiflorum); experiment: as above
Method in brief: as §2

[11] = system: wheat (Triticum aestivum); experiment: as above
Method in brief: as §2

[12] = system: barnyardgrass (Echinochloa crus-galli); experiment: as above
Method in brief: as §2

[13] = system: horseweed (Erigeron canadensis); experiment: as above
Method in brief: as §2

soybean (Glycine max) [14] = experiment: as above
Method in brief: as §2

[15] = system: palmer (palmer amaranth, palmer pigweed, Amaranthus palmeri); experiment: as above
Method in brief: as §2

kochia (Bassia scoparia) [16] = experiment: as above
Method in brief: as §2

corn (Zea mays) [17] = experiment: Test A preemergence soil spray, visual injury rating 0-100; conditions: 10 days
Method in brief: as §2

[18] = system: green foxtail (Setaria viridis); experiment: as above; conditions: 10 days
Method in brief: as §2

[19] = system: blackgrass (Alopecurus myosuroides); experiment: as above; conditions: 10 days
Method in brief: as §2

[20] = system: oat, wild (wild oat, Avena fatua); experiment: as above; conditions: 10 days
Method in brief: as §2

[21] = system: ragweed (common ragweed, Ambrosia artemisiifolia); experiment: as above; conditions: 10 days
Method in brief: as §2

[22] = system: ryegrass, Italian (italian ryegrass, Lolium multiflorum); experiment: as above; conditions: 10 days
Method in brief: as §2

[23] = system: wheat (Triticum aestivum); experiment: as above; conditions: 10 days
Method in brief: as §2

[24] = system: barnyardgrass (Echinochloa crus-galli); experiment: as above; conditions: 10 days
Method in brief: as §2

soybean (Glycine max) [25] = experiment: as above; conditions: 10 days
Method in brief: as §2

[26] = system: palmer (palmer amaranth, palmer pigweed, Amaranthus palmeri); experiment: as above; conditions: 10 days
Method in brief: as §2

kochia (Bassia scoparia) [27] = experiment: as above; conditions: 10 days
Method in brief: as §2

[28] = 62 g ai/ha, postemergence, 10 days, 0 = no effect, 100 = complete control
[29] = Postemergence, 16 g ai/ha, greenhouse 10 days, 0 no effect, 100 complete control
[30] = 62 g ai/ha, 0 = no effect, 100 = complete control

Compound: CC(C)COC(=O)C1=CCC(NC(=O)C2(C)CN(c3cc(F)cc(F)c3)C(=O)O2)C1 (stereo not shown) [Compound 97]
- Plant response rating, Ducksalad (0 to 100 scale, 0 is no effect and 100 is complete control) [1]: 0
- Plant response rating, Barnyardgrass (0 to 100 scale, 0 is no effect and 100 is complete control) [2]: 0
- Plant response rating, Sedge, Umbrella (0 to 100 scale, 0 is no effect and 100 is complete control) [3]: 0
- Plant response rating, Rice (0 to 100 scale, 0 is no effect and 100 is complete control) (rice (Oryza sativa)): 0
- Corn plant response rating (0-100) (corn (Zea mays) [4]; [28]): 0
- Corn plant response rating (0 to 100 scale) (corn (Zea mays) [4]; [29]): 0
- Galium plant response rating (0-100) [5, 28]: 60
- Galium plant response rating (0 to 100 scale) [5, 29]: 20
- Foxtail, Green plant response rating (0-100) [6, 28]: 0
- Foxtail, Green plant response rating (0 to 100 scale) [6, 29]: 0
- Blackgrass plant response rating (0-100) [7, 28]: 0
- Blackgrass plant response rating (0 to 100 scale) [7, 29]: 0
- Oat, Wild plant response rating (0-100) [8, 28]: 0
- Oat, Wild plant response rating (0 to 100 scale) [8, 29]: 0
- Ragweed plant response rating (0-100) [9, 28]: 20
- Ragweed plant response rating (0 to 100 scale) [9, 29]: 0
- Ryegrass, Italian plant response rating (0-100) [10, 28]: 0
- Ryegrass, Italian plant response rating (0 to 100 scale) [10, 29]: 0
- Wheat plant response rating (0-100) [11, 28]: 10
- Wheat plant response rating (0 to 100 scale) [11, 29]: 0
- Barnyardgrass plant response rating (0-100) [12, 28]: 20
- Barnyardgrass plant response rating (0 to 100 scale) [12, 29]: 0
- Horseweed plant response rating (0-100) [13, 28]: 0
- Horseweed plant response rating (0 to 100 scale) [13, 29]: 0
- Soybean plant response rating (0-100) (soybean (Glycine max) [14]; [28]): 40
- Soybean plant response rating (0 to 100 scale) (soybean (Glycine max) [14]; [29]): 0
- Pigweed, Palmer plant response rating (0-100) [15, 28]: 10
- Pigweed, Palmer plant response rating (0 to 100 scale) [15, 29]: 0
- Kochia plant response rating (0-100) (kochia (Bassia scoparia) [16]; [28]): 70
- Kochia plant response rating (0 to 100 scale) (kochia (Bassia scoparia) [16]; [29]): 30
- Corn plant response rating (corn (Zea mays) [17]; 16 g ai/ha, 0 to 100 scale): 0
- Corn plant response rating (0-100) (corn (Zea mays) [17]; [30]): 0
- Foxtail, Green plant response rating ([18]; 16 g ai/ha, 0 to 100 scale): 20
- Foxtail, Green plant response rating (0-100) [18, 30]: 60
- Blackgrass plant response rating ([19]; 16 g ai/ha, 0 to 100 scale): 0
- Blackgrass plant response rating (0-100) [19, 30]: 0
- Oat, Wild plant response rating ([20]; 16 g ai/ha, 0 to 100 scale): 0
- Oat, Wild plant response rating (0-100) [20, 30]: 0
- Ragweed plant response rating ([21]; 16 g ai/ha, 0 to 100 scale): 0
- Ragweed plant response rating (0-100) [21, 30]: 0
- Ryegrass, Italian plant response rating ([22]; 16 g ai/ha, 0 to 100 scale): 0
- Ryegrass, Italian plant response rating (0-100) [22, 30]: 0
- Wheat plant response rating ([23]; 16 g ai/ha, 0 to 100 scale): 0
- Wheat plant response rating (0-100) [23, 30]: 10
- Barnyardgrass plant response rating ([24]; 16 g ai/ha, 0 to 100 scale): 0
- Barnyardgrass plant response rating (0-100) [24, 30]: 0
- Soybean plant response rating (soybean (Glycine max) [25]; 16 g ai/ha, 0 to 100 scale): 0
- Soybean plant response rating (0-100) (soybean (Glycine max) [25]; [30]): 0
- Pigweed, Palmer plant response rating ([26]; 16 g ai/ha, 0 to 100 scale): 0
- Pigweed, Palmer plant response rating (0-100) [26, 30]: 0
- Kochia plant response rating (kochia (Bassia scoparia) [27]; 16 g ai/ha, 0 to 100 scale): 0
- Kochia plant response rating (0-100) (kochia (Bassia scoparia) [27]; [30]): 0

From patent US20260285850A1, “SUBSTITUTED OXAZOLIDINONES AND IMIDAZOLINONES AS HERBICIDES” (FMC CORPORATION, priority 2023, published 2026)
